Laboratory results published in patent US7820700B2, “2-phenylpyridine derivative” (Astellas Pharma Inc., priority 2004, dated 2010).
Structures can show the parent of a compound that is named as a salt.

Assays:
[1] = target: T1, xanthine oxidase (derived from butter milk) (Bos taurus, UniProt P80457); assay: Xanthine oxidase-inhibitory activity (pterin oxidation, fluorescence); type: biochemical; settings: pterin 5 μM, room temperature; read-out: IC50 (xanthine oxidase inhibition)
T1 construct: xanthine oxidase (derived from butter milk, manufactured by Sigma); purchased Sigma; host or cells: butter milk (natural source)
Method: A test compound was dissolved in DMSO (manufactured by Nakarai) so as to be a concentration of 10 mM and then used after the concentration was adjusted to an aimed one at use.
The evaluation of xanthine oxidase-inhibitory activity of the compound of the invention was carried out using a method described in a document (Free Radic. Biol. Med. 6, 607-615, 1992) with partial modification. Namely, xanthine oxidase (derived from butter milk, manufactured by Sigma) was adjusted to 0.03 units/ml using a 50 mM phosphate buffer and was added to a 96-well plate in an amount of 50 μl/well. Each test compound diluted so as to be a final concentration was added thereto in an amount of 2 μl/well, followed by treatment at room temperature for 20 minutes. Pterin (manufactured by Sigma) was added thereto so as to be a final concentration of 5 μM, followed by reaction at room temperature for 10 minutes. Measurement was performed using a microplate reader saphire (manufactured by Tecan) under conditions of excitation at 345 nm and emission at 390 nm (pterin was oxidized by xanthine oxidase into isoxanthopterin, which emitted a light under the conditions).
The concentration of the test compound at which 50% inhibition was observed (IC50 value) was calculated, the emissions of isoxanthopterin under conditions of the presence or absence of xanthine oxidase being 0% inhibition and 100% inhibition, respectively.

[2] = tested on: TNBS-induced enteritis; assay: Trinitrobenzenesulfonic acid-induced enteritis-inhibitory action; type: in vivo, male Wistar rats; settings: 3 mg/kg oral once a day, dissection on 21st day, Wistar rat
Method: The effectiveness of the compound of the invention on an enteritis model can be also evaluated by a model using trinitrobenzenesulfonic acid (TNBS) as an inducing agent instead of acetic acid (Cell. Mol. Biol, 38, 189-199, 1992). Thus, referring to the method described in the report, the enteritis-suppressing action of the compound of the invention was evaluated.
Namely, TNBS or physiological saline as a normal group was administered into the rectum of male Wistar rats of 200 to 250 g. Thereafter, a test compound or 0.5% methyl cellulose (control group) was orally administered once a day and dissection was performed on each administered group on 21st day. A part of the large intestine 2 to 7 cm from the anus side was cut out and incised. After feces were removed by means of tweezers, the part was washed and a score of morbid conditions was evaluated and tissue weight was measured. The score of morbid conditions and a tissue weight increase-suppressing ratio were calculated as in the evaluation method of the above acetic acid-induced enteritis-suppressing action.

[3] = target: T2, AKR1C3 (17βHSD5) (Homo sapiens, UniProt P42330); assay: AKR1C3 inhibitory action (DELFIA Testosterone Reagents); type: biochemical; settings: read-out: IC50 (AKR1C3 inhibition)
T2 sequence (P42330 1-323): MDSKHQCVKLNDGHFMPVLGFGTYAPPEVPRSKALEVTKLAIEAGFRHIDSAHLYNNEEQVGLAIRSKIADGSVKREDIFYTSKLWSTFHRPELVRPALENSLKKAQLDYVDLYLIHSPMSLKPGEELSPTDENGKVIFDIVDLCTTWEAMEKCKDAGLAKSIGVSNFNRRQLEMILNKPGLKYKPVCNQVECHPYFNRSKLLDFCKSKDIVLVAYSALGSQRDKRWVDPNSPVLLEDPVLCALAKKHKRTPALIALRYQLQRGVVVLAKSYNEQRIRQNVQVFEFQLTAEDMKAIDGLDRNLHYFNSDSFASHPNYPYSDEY
Source text: AKR1C3 known as a molecule belonging to aldo-keto reductase is known as a multifunctional enzyme (Jikken Igaku 23, 90-97, 2005). There is expected the application of a compound inhibiting AKR1C3 to various morbid conditions including inflammatory diseases (Mol. Pharmacol 67, 60-68, 2005) (Current Pharmaceutical Design 10, 3505-3524, 2004) (J. Biol. Chem 273, 1855-1888, 1998).

[4] = tested on: VEGF mRNA in the vitreous body; assay: Diabetic retinopathy model (streptozotocin), VEGF mRNA in the vitreous body; type: in vivo, male Wistar rat; settings: 30 mg/kg oral once a day for 7 days, STZ rats, vs control group
Method: The efficiency of the compound of the invention on diabetic retinopathy was tested by the method described in European Journal of Pharmacology 458 (2003) 283-289 (except that the animal used in the experiment was male Wistar rat, 10 weeks old).
Streptozotocin (STZ) was administered to the animals to be tested and increase in blood sugar level was confirmed after 24 hours. Thereafter, the animals were divided into a 0.5% methyl cellulose-administered group (control group) and 30 mg/kg test compound-administered group and oral administration was performed once a day for 7 days.

[5] = tested on: pyrimidine synthetic pathway (BUN level); assay: Pyrimidine synthetic pathway-inhibitory action (influence on BUN level); type: in vivo; settings: oral administration of 30 mg/kg
Source text: Allopurinol which is an existing hyperuricemia therapeutic drug is known to cause renal dysfunction as an undesirable action. As mentioned previously, since allopurinol has a nucleic acid-like structure, as one cause thereof, it is presumed that it inhibits pyrimidine synthetic pathway. […] Thus, according to the method described in the document, the influence of the compounds of the invention on a BUN level was confirmed.

T1 sequence (P80457 whole entry): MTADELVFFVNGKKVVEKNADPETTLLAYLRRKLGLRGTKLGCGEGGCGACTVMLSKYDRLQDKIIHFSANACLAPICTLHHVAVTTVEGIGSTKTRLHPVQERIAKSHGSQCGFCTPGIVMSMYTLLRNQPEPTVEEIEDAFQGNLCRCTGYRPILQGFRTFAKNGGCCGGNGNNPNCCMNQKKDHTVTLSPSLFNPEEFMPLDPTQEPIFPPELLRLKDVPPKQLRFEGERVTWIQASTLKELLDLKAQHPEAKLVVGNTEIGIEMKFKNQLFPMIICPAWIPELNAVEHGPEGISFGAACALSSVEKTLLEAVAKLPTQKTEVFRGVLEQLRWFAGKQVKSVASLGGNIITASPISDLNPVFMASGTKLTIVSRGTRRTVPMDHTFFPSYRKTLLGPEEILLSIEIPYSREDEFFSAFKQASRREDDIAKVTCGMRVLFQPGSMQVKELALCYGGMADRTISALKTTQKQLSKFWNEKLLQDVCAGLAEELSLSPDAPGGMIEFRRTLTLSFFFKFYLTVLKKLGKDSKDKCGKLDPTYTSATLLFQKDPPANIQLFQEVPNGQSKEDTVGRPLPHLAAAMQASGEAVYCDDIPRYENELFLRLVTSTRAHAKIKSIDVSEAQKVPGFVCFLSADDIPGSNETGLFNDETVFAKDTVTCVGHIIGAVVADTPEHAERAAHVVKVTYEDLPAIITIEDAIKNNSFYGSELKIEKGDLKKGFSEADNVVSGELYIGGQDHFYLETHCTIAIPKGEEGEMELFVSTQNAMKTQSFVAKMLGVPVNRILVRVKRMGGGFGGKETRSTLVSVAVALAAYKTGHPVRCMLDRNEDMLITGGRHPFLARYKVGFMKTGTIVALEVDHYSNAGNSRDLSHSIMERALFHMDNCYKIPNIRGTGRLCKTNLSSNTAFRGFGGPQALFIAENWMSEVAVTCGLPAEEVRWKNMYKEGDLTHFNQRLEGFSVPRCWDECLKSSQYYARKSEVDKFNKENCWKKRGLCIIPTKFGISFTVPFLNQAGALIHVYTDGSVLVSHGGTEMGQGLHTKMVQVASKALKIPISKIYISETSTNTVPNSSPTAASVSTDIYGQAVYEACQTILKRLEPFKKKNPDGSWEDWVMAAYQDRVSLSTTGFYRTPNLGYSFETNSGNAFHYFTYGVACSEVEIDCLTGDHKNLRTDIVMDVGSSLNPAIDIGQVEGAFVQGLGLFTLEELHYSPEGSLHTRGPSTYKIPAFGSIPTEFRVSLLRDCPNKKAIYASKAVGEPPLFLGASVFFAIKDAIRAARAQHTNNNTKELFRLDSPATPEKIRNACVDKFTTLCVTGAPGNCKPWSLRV

IC50 [1] | Compound | also measured
4.1 nM | N#Cc1cc(-c2cc(C(=O)O)ccn2)ccc1OC1CCOCC1 [Example 14] | –
4.3 nM | CC1(C)CC(Oc2ccc(-c3cc(C(=O)O)ccn3)cc2C#N)CC(C)(C)C1 [Example 44] | –
1.3 nM | CC1CCN(c2ccc(-c3cc(C(=O)O)ccn3)cc2C#N)CC1 [Example 45] | Pyrimidine synthetic pathway inhibitory action (BUN level) [5]: no inhibitory action
2.8 nM | N#Cc1cc(-c2cc(C(=O)O)ccn2)ccc1N1CC=CCC1 [Example 49] | –
1.1 nM | N#Cc1cc(-c2cc(C(=O)O)ccn2)ccc1NC1CCCCCC1 [Example 63] | –
2.2 nM | COC1(C2CCCCC2)CCN(c2ccc(-c3cc(C(=O)O)ccn3)cc2C#N)CC1 [Example 67] | –
3.1 nM | CC(C)=CCOc1ccc(-c2cc(C(=O)O)ccn2)cc1C#N [Example 72] | –

The next lines start with the compound.

Compound | IC50 [1] | also measured
CC(C)COc1ccc(-c2cc(C(=O)O)ccn2)cc1C#N [Example 1, 2-(3-cyano-4-isobutoxyphenyl)isonicotinic acid] | 3.6 nM | –
CSCCCOc1ccc(-c2cc(C(=O)O)ccn2)cc1C#N [Example 3, 2-{3-cyano-4-[3-(methylthio)propoxy]phenyl}isonicotinic acid] | 5 nM | –
N#Cc1cc(-c2cc(C(=O)O)ccn2)ccc1N1CCCCCC1 [Example 4, 2-(4-azepan-1-yl-3-cyanophenyl)isonicotinic acid monohydrochloride] | 1.2 nM | Suppression of intestinal tissue weight increase [2]: ≥ 70%; IC50 [3]: ≤ 1000 nM; Suppression of increase of VEGF mRNA in the vitreous body [4]: significant suppressing action; Pyrimidine synthetic pathway inhibitory action (BUN level) [5]: no inhibitory action
CC(C)CSc1ccc(-c2cnccc2C(=O)O)cc1C#N [Example 7, sodium 5-[3-cyano-4-(isobutylthio)phenyl]isonicotinate] | 2.5 nM | –
N#Cc1cc(-c2cc(C(=O)O)ccn2)ccc1OCc1ccccc1 [Example 9] | 2.6 nM | –
N#Cc1cc(-c2cc(C(=O)O)ccn2)ccc1OCC(F)(F)F [Example 13] | 10 nM | –
N#Cc1cc(-c2cc(C(=O)O)ccn2)ccc1OCc1ccccn1 [Example 21] | 10 nM | –
N#Cc1cc(-c2cc(C(=O)O)ccn2)ccc1OCCOc1ccccc1 [Example 30] | 4.2 nM | –
N#Cc1cc(-c2cc(C(=O)O)ccn2)ccc1OCCOc1cc(F)cc2c1OCCC2 [Example 33] | 7.3 nM | –
CCCCN(C)c1ccc(-c2cc(C(=O)O)ccn2)cc1C#N [Example 57] | 3.1 nM | –
CC(C)COc1ccc(-c2nccc(C(=O)O)c2F)cc1C#N [Example 75] | 3.2 nM | –
CC(C)COc1ccc(-c2cc(C(=O)O)c(Cl)cn2)cc1C#N [Example 77] | 4 nM | –
CC(C)COc1c(Br)cc(-c2cc(C(=O)O)ccn2)cc1C#N [Example 79] | 5.8 nM | –
